For experiment [1], the system named is catecholaminergic fibers projecting to pancreatic LN. The arrangement: species or system tdTomatoTH-Cre mice.
Experiment [2] has as its system OVA-specific CD8+ TCR transgenic T-cells. The experiment can be described thus: Pancreatic auto-antigen cross-presentation: proliferation of adoptively transferred OVA-specific CD8+ T cells in RIP-OVA mice under PNES. To be noted: PNES 450 μA, 10 Hz, 2 mn, 3 times/day; FIG. 3C. It counts as in vivo, RIP-OVA transgenic mice.

Take `NC1=N[C@H](O)[C@H]2[C@H]3O[C@]4(O)O[C@@H]([C@@H](O)[C@@]2(N1)[C@@H]4O)[C@]3(O)CO` [tetrodotoxin]: the “Field Action Potentials (FAP) peak amplitude after addition of TTX to the medium” value in experiment [1] is “inhibited”.
Consider `CC(C)NCC(O)COc1cccc2ccccc12` (centres unmarked) [propranolol], for which the “Effect of PNES on auto-antigen cross-presentation (T cell proliferation relative to sham) in mice treated with propranolol” value in experiment [2] is reported as “β-AR-dependent”.

Source of the values: US11517754B2 (priority 2017, dated 2022).
